Measured values as given in patent US12522583B2, “Benzimidazole derivatives and aza-benzimidazole derivatives as Janus kinase 2 inhibitors and uses thereof” (Dana-Farber Cancer Institute, Inc., priority 2018, dated 2026).

Assays:
[1] = target: JAK2 (Homo sapiens (Human), UniProt O60674); experiment: JAK2 Z-Lyte biochemical assay
Procedure: Example 3. JAK2 Z-Lyte Biochemical Assay of the Compounds of the Present Disclosure
The JAK2 Z-Lyte biochemical assay was performed according to manufacturer's instructions (Life Technologies).

[2] = target: CDK2 (Homo sapiens (Human), UniProt P24941); experiment: KINOMEscan; type: binding; settings: read-out: percent control
Description: (§1) Example 2. In Vitro Kinase Selectivity Profiling of the Compounds of the Present Disclosure

[3] = target: RSK3(Kin.Dom.2- C-terminal) (Homo sapiens (Human), UniProt Q15349); experiment: KINOMEscan; type: binding; settings: read-out: percent control
Description: as §1

[4] = target: ACVR2B (Homo sapiens (Human), UniProt Q13705); experiment: KINOMEscan; type: binding; settings: read-out: percent control
Description: as §1

[5] = target: FES (Homo sapiens (Human), UniProt P07332); experiment: KINOMEscan; type: binding; settings: read-out: percent control
Description: as §1

[6] = target: MET(Y1235D) (Homo sapiens (Human), UniProt P08581, Y1235D); experiment: KINOMEscan; type: binding; settings: read-out: percent control
Description: as §1

[7] = target: IKK-alpha (Homo sapiens (Human), UniProt O15111); experiment: KINOMEscan; type: binding; settings: read-out: percent control
Description: as §1

[8] = target: AURKB (Homo sapiens (Human), UniProt Q96GD4); experiment: KINOMEscan; type: binding; settings: read-out: percent control
Description: as §1

[9] = target: WNK1 (Homo sapiens (Human), UniProt Q9H4A3); experiment: KINOMEscan; type: binding; settings: read-out: percent control
Description: as §1

[10] = target: TSSK3 (Homo sapiens (Human), UniProt Q96PN8); experiment: KINOMEscan; type: binding; settings: read-out: percent control
Description: as §1

[11] = target: CHEK2 (Homo sapiens (Human), UniProt O96017); experiment: KINOMEscan; type: binding; settings: read-out: percent control
Description: as §1

[12] = target: ERK5 (Homo sapiens (Human), UniProt Q13164); experiment: KINOMEscan; type: binding; settings: read-out: percent control
Description: as §1

[13] = target: MLK2 (Homo sapiens (Human), UniProt Q02779); experiment: KINOMEscan; type: binding; settings: read-out: percent control
Description: as §1

[14] = target: CSNK2A2 (Homo sapiens (Human), UniProt P19784); experiment: KINOMEscan; type: binding; settings: read-out: percent control
Description: as §1

[15] = target: LYN (Homo sapiens (Human), UniProt P07948); experiment: KINOMEscan; type: binding; settings: read-out: percent control
Description: as §1

[16] = target: FLT3(K663Q) (Homo sapiens (Human), UniProt P36888, K663Q); experiment: KINOMEscan; type: binding; settings: read-out: percent control
Description: as §1

[17] = target: MARK4 (Homo sapiens (Human), UniProt Q96L34); experiment: KINOMEscan; type: binding; settings: read-out: percent control
Description: as §1

[18] = target: OSR1 (Homo sapiens (Human), UniProt O95747); experiment: KINOMEscan; type: binding; settings: read-out: percent control
Description: as §1

[19] = target: PIK3CA (Homo sapiens (Human), UniProt P42336); experiment: KINOMEscan; type: binding; settings: read-out: percent control
Description: as §1

[20] = target: NDR2 (Homo sapiens (Human), UniProt Q9Y2H1); experiment: KINOMEscan; type: binding; settings: read-out: percent control
Description: as §1

[21] = target: CSNK1G2 (Homo sapiens (Human), UniProt P78368); experiment: KINOMEscan; type: binding; settings: read-out: percent control
Description: as §1

[22] = target: ABL2 (Homo sapiens (Human), UniProt P42684); experiment: KINOMEscan; type: binding; settings: read-out: percent control
Description: as §1

[23] = target: RPS6KA5(Kin.Dom.2-C-terminal) (Homo sapiens (Human), UniProt O75582); experiment: KINOMEscan; type: binding; settings: read-out: percent control
Description: as §1

[24] = target: CDK4 (Homo sapiens (Human), UniProt P11802); experiment: KINOMEscan; type: binding; settings: read-out: percent control
Description: as §1

[25] = target: VPS34 (Homo sapiens (Human), UniProt Q8NEB9); experiment: KINOMEscan; type: binding; settings: read-out: percent control
Description: as §1

[26] = target: RIPK5 (Homo sapiens (Human), UniProt Q6XUX3); experiment: KINOMEscan; type: binding; settings: read-out: percent control
Description: as §1

[27] = target: HIPK2 (Homo sapiens (Human), UniProt Q9H2X6); experiment: KINOMEscan; type: binding; settings: read-out: percent control
Description: as §1

[28] = target: IGF1R (Homo sapiens (Human), UniProt P08069); experiment: KINOMEscan; type: binding; settings: read-out: percent control
Description: as §1

[29] = target: GRK4 (Homo sapiens (Human), UniProt P32298); experiment: KINOMEscan; type: binding; settings: read-out: percent control
Description: as §1

[30] = target: YANK3 (Homo sapiens (Human), UniProt Q86UX6); experiment: KINOMEscan; type: binding; settings: read-out: percent control
Description: as §1

[31] = target: DYRK1B (Homo sapiens (Human), UniProt Q9Y463); experiment: KINOMEscan; type: binding; settings: read-out: percent control
Description: as §1

[32] = target: NEK11 (Homo sapiens (Human), UniProt Q8NG66); experiment: KINOMEscan; type: binding; settings: read-out: percent control
Description: as §1

[33] = target: MRCKA (Homo sapiens (Human), UniProt Q5VT25); experiment: KINOMEscan; type: binding; settings: read-out: percent control
Description: as §1

[34] = target: ERN1 (Homo sapiens (Human), UniProt O75460); experiment: KINOMEscan; type: binding; settings: read-out: percent control
Description: as §1

[35] = target: KIT (Homo sapiens (Human), UniProt P10721); experiment: KINOMEscan; type: binding; settings: read-out: percent control
Description: as §1

[36] = target: ABL1(F317I)-phosphorylated (Homo sapiens (Human), UniProt P00519, F317I); experiment: KINOMEscan; type: binding; settings: read-out: percent control
Description: as §1

[37] = target: TAOK2 (Homo sapiens (Human), UniProt Q9UL54); experiment: KINOMEscan; type: binding; settings: read-out: percent control
Description: as §1

[38] = target: NEK6 (Homo sapiens (Human), UniProt Q9HC98); experiment: KINOMEscan; type: binding; settings: read-out: percent control
Description: as §1

[39] = target: STK36 (Homo sapiens (Human), UniProt Q9NRP7); experiment: KINOMEscan; type: binding; settings: read-out: percent control
Description: as §1

CSNK2A2, sequence (P19784 whole entry): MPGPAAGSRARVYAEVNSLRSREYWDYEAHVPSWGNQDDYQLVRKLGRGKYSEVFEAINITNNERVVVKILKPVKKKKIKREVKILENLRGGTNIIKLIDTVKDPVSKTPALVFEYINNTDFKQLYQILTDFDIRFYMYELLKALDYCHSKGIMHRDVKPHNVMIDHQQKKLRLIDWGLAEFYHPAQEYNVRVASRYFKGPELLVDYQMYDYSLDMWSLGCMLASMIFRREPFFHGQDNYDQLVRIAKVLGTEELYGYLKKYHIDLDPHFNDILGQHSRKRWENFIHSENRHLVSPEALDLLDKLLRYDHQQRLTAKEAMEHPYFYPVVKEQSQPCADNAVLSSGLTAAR
ACVR2B, sequence (Q13705 19-512): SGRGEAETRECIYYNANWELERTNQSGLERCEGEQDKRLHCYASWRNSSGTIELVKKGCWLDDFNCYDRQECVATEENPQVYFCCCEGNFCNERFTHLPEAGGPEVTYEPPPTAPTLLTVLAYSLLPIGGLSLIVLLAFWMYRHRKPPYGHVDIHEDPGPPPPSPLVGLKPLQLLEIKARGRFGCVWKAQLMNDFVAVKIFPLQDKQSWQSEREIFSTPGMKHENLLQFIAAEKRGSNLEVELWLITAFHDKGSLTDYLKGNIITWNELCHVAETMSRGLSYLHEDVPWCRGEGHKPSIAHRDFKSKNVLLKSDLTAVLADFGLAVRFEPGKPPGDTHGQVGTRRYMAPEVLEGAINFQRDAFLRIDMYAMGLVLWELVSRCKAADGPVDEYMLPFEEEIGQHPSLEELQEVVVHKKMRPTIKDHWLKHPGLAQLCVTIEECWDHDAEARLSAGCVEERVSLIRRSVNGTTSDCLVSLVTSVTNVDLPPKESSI
CHEK2, sequence (O96017 whole entry): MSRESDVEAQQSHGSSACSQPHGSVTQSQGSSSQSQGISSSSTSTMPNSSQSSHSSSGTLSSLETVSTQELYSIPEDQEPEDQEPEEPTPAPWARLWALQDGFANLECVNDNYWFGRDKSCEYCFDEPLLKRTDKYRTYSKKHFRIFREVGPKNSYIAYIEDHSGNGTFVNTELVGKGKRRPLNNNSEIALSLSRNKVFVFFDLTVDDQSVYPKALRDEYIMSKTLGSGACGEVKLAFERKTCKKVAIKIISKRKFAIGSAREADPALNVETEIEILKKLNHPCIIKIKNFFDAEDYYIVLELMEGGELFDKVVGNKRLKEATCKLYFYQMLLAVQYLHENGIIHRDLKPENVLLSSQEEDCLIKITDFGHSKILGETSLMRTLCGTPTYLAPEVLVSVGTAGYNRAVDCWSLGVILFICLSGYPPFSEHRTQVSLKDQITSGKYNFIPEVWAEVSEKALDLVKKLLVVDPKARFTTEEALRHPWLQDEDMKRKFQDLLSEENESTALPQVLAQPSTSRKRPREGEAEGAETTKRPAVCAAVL
MARK4, sequence (Q96L34 whole entry): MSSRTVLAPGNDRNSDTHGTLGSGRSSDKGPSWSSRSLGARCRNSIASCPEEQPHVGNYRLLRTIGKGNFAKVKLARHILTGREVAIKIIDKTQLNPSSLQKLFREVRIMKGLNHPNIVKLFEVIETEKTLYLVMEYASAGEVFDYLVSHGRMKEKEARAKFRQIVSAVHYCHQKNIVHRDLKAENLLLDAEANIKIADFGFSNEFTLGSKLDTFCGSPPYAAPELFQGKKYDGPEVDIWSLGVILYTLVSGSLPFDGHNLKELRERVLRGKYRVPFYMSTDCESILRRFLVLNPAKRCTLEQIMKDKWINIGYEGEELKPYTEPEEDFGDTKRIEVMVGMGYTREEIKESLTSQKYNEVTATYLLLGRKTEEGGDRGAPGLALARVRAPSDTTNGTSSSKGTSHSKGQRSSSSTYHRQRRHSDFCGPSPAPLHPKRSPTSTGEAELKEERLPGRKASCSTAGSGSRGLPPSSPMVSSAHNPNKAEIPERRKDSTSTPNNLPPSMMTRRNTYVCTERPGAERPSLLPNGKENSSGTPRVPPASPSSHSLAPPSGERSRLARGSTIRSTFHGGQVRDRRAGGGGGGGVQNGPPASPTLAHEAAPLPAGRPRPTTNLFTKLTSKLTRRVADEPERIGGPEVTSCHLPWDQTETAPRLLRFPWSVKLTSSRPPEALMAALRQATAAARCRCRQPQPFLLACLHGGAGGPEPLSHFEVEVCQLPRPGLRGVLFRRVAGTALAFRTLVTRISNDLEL
ERK5, sequence (Q13164 whole entry): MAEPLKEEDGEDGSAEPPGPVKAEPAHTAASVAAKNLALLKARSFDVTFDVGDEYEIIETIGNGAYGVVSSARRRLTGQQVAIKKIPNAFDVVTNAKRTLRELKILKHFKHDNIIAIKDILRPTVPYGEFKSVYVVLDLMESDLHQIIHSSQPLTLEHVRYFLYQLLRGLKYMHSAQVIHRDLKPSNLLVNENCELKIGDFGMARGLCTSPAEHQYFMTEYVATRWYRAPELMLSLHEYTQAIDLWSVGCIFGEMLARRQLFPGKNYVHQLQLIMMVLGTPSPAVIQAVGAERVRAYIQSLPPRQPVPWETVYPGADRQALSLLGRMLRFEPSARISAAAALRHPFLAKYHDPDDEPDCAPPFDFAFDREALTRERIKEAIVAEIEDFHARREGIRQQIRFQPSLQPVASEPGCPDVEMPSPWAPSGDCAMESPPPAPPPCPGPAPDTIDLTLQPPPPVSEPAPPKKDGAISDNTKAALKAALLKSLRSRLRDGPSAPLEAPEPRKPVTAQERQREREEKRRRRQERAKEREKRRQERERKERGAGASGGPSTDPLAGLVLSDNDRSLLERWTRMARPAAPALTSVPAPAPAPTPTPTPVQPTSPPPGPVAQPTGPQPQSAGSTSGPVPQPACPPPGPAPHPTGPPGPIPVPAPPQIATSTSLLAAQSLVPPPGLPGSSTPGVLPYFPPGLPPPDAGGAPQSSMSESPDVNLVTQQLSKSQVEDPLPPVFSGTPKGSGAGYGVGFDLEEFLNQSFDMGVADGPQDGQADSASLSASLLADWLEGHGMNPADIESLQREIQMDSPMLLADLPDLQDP
CSNK1G2, sequence (P78368 whole entry): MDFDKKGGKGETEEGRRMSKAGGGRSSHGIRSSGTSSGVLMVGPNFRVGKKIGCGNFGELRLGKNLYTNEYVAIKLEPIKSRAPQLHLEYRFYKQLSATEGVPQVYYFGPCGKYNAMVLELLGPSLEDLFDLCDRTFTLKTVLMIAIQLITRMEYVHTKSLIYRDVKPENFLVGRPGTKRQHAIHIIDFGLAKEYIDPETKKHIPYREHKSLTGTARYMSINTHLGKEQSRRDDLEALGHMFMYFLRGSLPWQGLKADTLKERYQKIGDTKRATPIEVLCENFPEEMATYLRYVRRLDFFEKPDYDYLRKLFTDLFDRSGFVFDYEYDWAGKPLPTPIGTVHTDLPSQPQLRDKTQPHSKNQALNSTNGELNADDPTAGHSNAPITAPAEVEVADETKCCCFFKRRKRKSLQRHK
LYN, sequence (P07948 whole entry): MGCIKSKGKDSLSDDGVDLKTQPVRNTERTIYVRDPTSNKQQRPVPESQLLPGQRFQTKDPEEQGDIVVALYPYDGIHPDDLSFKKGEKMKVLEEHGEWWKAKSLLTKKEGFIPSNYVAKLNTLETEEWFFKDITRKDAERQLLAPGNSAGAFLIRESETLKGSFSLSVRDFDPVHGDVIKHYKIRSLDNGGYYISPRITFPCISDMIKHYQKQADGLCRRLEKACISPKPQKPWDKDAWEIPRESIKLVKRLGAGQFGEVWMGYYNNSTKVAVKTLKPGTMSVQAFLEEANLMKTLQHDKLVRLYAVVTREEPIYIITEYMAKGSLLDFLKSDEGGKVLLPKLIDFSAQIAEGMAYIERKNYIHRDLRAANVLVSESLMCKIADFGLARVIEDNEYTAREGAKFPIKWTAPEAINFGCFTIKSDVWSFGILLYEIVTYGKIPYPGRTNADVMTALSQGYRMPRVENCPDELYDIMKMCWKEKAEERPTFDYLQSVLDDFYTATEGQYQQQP
ABL1(F317I)-phosphorylated, sequence (P00519 whole entry F317I): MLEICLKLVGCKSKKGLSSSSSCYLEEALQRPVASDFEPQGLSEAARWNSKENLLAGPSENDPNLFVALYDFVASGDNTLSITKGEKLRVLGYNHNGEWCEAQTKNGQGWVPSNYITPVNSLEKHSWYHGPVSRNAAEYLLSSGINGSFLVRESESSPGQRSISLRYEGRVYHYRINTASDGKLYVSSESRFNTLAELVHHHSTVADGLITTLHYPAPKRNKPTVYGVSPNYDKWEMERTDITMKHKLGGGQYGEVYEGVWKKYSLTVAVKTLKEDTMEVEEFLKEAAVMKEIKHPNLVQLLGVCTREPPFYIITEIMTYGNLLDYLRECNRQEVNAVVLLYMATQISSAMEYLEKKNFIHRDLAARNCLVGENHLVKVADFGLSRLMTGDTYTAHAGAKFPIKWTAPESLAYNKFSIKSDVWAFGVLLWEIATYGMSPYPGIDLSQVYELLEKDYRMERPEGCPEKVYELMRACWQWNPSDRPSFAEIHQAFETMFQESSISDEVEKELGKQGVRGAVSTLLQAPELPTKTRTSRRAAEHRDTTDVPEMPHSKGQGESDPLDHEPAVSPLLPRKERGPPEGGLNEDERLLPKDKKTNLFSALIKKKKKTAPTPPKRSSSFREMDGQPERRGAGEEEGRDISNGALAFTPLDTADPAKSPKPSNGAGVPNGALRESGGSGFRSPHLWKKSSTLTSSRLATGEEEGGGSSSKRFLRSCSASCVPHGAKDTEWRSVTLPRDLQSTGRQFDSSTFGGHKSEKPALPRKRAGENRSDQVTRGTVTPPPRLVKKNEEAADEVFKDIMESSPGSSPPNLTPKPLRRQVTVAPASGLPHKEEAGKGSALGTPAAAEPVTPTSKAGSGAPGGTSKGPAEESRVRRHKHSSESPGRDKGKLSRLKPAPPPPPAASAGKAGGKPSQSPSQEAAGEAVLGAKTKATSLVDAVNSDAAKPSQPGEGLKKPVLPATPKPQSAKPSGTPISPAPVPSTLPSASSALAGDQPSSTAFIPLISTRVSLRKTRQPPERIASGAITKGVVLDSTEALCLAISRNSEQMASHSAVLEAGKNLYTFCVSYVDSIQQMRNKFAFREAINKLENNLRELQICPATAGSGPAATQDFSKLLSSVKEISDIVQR

Row | Structure (SMILES) | IC50 [1] [nM] | remaining binding at 1 µM [2] [%] | remaining binding at 1 µM [3] [%] | remaining binding at 1 µM [4] [%] | remaining binding at 1 µM [5] [%] | remaining binding at 1 µM [6] [%] | remaining binding at 1 µM [7] [%] | remaining binding at 1 µM [8] [%] | remaining binding at 1 µM [9] [%] | remaining binding at 1 µM [10] [%] | remaining binding at 1 µM [11] [%] | remaining binding at 1 µM [12] [%] | remaining binding at 1 µM [13] [%] | remaining binding at 1 µM [14] [%] | remaining binding at 1 µM [15] [%] | remaining binding at 1 µM [16] [%] | remaining binding at 1 µM [17] [%] | remaining binding at 1 µM [18] [%] | remaining binding at 1 µM [19] [%] | remaining binding at 1 µM [20] [%] | also measured
1 | CCN1CCN(Cc2ccc(Nc3nc4ccc(Oc5ccnc(NC(C)=O)c5)cc4n3C)cc2C(F)(F)F)CC1 [Compound I-2] | 794 | 100 | 82 | 97 | 100 | 71 | 100 | 49 | 100 | 86 | 96 | 89 | 100 | 82 | 44 | 16 | 98 | 100 | 90 | 62 | remaining binding at 1 µM [21]: 100%; remaining binding at 1 µM [22]: 32%; remaining binding at 1 µM [23]: 90%; remaining binding at 1 µM [24]: 94%; remaining binding at 1 µM [25]: 87%; remaining binding at 1 µM [26]: 69%; remaining binding at 1 µM [27]: 100%; remaining binding at 1 µM [28]: 59%; remaining binding at 1 µM [29]: 99%; remaining binding at 1 µM [30]: 100%; remaining binding at 1 µM [31]: 71%; remaining binding at 1 µM [32]: 100%; remaining binding at 1 µM [33]: 100%; remaining binding at 1 µM [34]: 91%; remaining binding at 1 µM [35]: 0%; remaining binding at 1 µM [36]: 82%; remaining binding at 1 µM [37]: 0.25%; remaining binding at 1 µM [38]: 93%; remaining binding at 1 µM [39]: 79%
2 | CCN1CCN(Cc2ccc(Nc3nc4ccc(Oc5ccnc(NC(C)=O)c5)c(C)c4n3C)cc2C(F)(F)F)CC1 [Compound I-6, N-(4-(2-(4-((4-ethylpiperazin-1-yl)methyl)-3-(trifluoromethyl)phenylamino)-1,7-dimethyl-1H-benzo[d]imidazol-6-yloxy)pyridin-2-yl)acetamide] | 980 | 86 | 95 | 100 | 82 | 44 | 75 | 81 | 100 | 100 | 90 | 88 | 95 | 100 | 12 | 9.3 | 83 | 87 | 91 | 97 | remaining binding at 1 µM [21]: 100%; remaining binding at 1 µM [22]: 5.3%; remaining binding at 1 µM [23]: 100%; remaining binding at 1 µM [24]: 92%; remaining binding at 1 µM [25]: 100%; remaining binding at 1 µM [26]: 61%; remaining binding at 1 µM [27]: 86%; remaining binding at 1 µM [28]: 34%; remaining binding at 1 µM [29]: 81%; remaining binding at 1 µM [30]: 89%; remaining binding at 1 µM [31]: 50%; remaining binding at 1 µM [32]: 61%; remaining binding at 1 µM [33]: 98%; remaining binding at 1 µM [34]: 97%; remaining binding at 1 µM [35]: 0.55%; remaining binding at 1 µM [36]: 34%; remaining binding at 1 µM [37]: 0%; remaining binding at 1 µM [38]: 99%; remaining binding at 1 µM [39]: 92%
